Patent US10030020B2, “Spirocycle compounds and methods of making and using same” (Abide Therapeutics, Inc., priority 2016, dated 2018)

Tests used:
MAGL [1] = target: T1, MAGL (Mus musculus (Mouse), UniProt O35678); experiment: Mouse brain proteomes from inhibitor treated mice (oral gavage, sacrificed 4 h after administration, ABPP analysis); type: in vivo, mouse (C57Bl/6J); conditions: 5 mg/kg oral gavage
How it was run: (§1)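 Compounds were given by oral gavage to wild-type C57Bl/6J mice in a vehicle such as PEG400/Ethanol/PBS (7/2/1). Animals were sacrificed 4 h after dosing, and brain proteomes were prepared and analyzed by established ABPP methods. Values are % inhibition at 5 mg/kg.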

ABHD6 [2] = target: T2, ABHD6 (Mus musculus (Mouse), UniProt Q8R2Y0); experiment: Mouse brain proteomes from inhibitor treated mice (oral gavage, sacrificed 4 h after administration, ABPP analysis), ABHD6; type: in vivo, mouse (C57Bl/6J); conditions: 5 mg/kg oral gavage
T2 sequence (Q8R2Y0 whole entry): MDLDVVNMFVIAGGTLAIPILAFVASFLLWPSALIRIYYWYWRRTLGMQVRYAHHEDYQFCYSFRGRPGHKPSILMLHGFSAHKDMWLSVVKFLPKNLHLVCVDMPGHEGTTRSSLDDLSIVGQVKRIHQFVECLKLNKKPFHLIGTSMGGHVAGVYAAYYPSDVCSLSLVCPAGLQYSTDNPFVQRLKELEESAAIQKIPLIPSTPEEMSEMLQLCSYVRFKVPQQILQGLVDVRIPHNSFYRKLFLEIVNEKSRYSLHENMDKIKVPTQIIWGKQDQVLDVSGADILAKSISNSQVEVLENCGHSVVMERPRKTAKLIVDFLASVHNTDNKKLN
How it was run: as §1

ABHD6 [3] = target: T2, ABHD6; experiment: In vitro competitive activity-based protein profiling (mouse brain membrane fraction or cell lysates), ABHD6 band; type: biochemical; conditions: mouse proteome; for inhibition at 1 µM: read-out: ABHD6 % Inh 1 μM (mouse); for IC50: competitive ABPP
How it was run: (§2)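 Mouse proteome samples (brain membrane fraction or cell lysate, 1.0 mg/mL protein) were pretreated with varying inhibitor concentrations and subsequently probed with fluorophosphonate-rhodamine, each step lasting 30 min at 37° C. Labelled proteins were separated by SDS-PAGE, and band fluorescence was imaged and quantified.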

FAAH [4] = target: T3, FAAH (Mus musculus (Mouse), UniProt O08914); experiment: Mouse brain proteomes from inhibitor treated mice (oral gavage, sacrificed 4 h after administration, ABPP analysis), FAAH; type: in vivo, mouse (C57Bl/6J); conditions: 5 mg/kg oral gavage
T3 sequence (O08914 whole entry): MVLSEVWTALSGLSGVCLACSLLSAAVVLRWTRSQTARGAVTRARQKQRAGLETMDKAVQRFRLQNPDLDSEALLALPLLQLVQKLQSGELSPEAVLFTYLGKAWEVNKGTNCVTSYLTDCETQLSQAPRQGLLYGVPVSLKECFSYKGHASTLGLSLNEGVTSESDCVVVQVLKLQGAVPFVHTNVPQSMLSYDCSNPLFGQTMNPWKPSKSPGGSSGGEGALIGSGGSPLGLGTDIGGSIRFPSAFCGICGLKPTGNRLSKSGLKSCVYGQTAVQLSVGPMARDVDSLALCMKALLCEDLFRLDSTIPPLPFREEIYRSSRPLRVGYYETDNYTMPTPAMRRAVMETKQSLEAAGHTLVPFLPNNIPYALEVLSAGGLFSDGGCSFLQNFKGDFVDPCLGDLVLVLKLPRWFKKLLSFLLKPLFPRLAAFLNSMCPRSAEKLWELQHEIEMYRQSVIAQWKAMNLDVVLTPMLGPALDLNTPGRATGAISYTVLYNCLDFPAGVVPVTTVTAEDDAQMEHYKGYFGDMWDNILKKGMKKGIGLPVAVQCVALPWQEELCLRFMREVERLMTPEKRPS
How it was run: as §1

FAAH [5] = target: T3, FAAH; experiment: In vitro competitive activity-based protein profiling (mouse brain membrane fraction or cell lysates), FAAH band; type: biochemical; conditions: mouse proteome; for inhibition at 1 µM: read-out: FAAH % Inh 1 μM (mouse); for IC50: competitive ABPP
How it was run: as §2

MAGL [6] = target: T1, MAGL; experiment: In vitro competitive activity-based protein profiling (mouse brain membrane fraction or cell lysates), MAGL band; type: biochemical; conditions: mouse proteome; for inhibition at 1 µM: read-out: MAGL % Inh 1 μM (mouse); for IC50: competitive ABPP
Experimental: In Vitro Competitive Activity-Based Protein Profiling.
Proteomes (mouse brain membrane fraction or cell lysates) (50 μL, 1.0 mg/mL total protein concentration) were preincubated with varying concentrations of inhibitors at 37° C. After 30 min, FP—Rh (1.0 μL, 50 μM in DMSO) was added and the mixture was incubated for another 30 min at 37° C. Reactions were quenched with SDS loading buffer (50 μL-4×) and run on SDS-PAGE.

T1 sequence (O35678 whole entry): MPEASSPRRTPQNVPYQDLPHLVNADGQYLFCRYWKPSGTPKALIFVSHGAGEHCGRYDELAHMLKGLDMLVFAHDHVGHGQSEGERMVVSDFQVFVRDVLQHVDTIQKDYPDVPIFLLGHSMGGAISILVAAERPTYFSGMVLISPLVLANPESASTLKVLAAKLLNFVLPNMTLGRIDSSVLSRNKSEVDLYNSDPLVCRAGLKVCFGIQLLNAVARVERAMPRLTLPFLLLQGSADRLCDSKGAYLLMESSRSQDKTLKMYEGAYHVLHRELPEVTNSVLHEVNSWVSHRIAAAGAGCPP

Row | MAGL % Inh 5 mg/kg (mouse) (MAGL [1]) | ABHD6 % Inh 5 mg/kg (mouse) (ABHD6 [2]) | inhibition at 1 µM (ABHD6 [3]) | IC50 (ABHD6 [3]) | FAAH % Inh 5 mg/kg (mouse) (FAAH [4]) | inhibition at 1 µM (FAAH [5]) | IC50 (FAAH [5]) | inhibition at 1 µM (MAGL [6]) | IC50 (MAGL [6]) | SMILES
1 | ### (### is ≥75%) | # (# is <25%) | < 25% | > 1000 nM | # (# is <25%) | < 25% | > 1000 nM | > 75% | < 100 nM | O=C(OC(C(F)(F)F)C(F)(F)F)N1CCC2(CCCN2Cc2ccc(Cl)cc2N2CC3CCC(C2)O3)CC1 [Example 75, 1,1,1,3,3,3-Hexafluoropropan-2-yl 1-(2-(8-oxa-3-azabicyclo[3.2.1]octan-3-yl)-4-chlorobenzyl)-1,8-diazaspiro[4.5]decane-8-carboxylate]
2 | ### (### is ≥75%) | # (# is <25%) | < 25% | > 1000 nM | # (# is <25%) | < 25% | > 1000 nM | > 75% | < 100 nM | O=C(OC(C(F)(F)F)C(F)(F)F)N1CCC2(CCCN2Cc2ccc(Cl)cc2N2CCCC2)CC1 [Example 76, 1,1,1,3,3,3-Hexafluoropropan-2-yl 1-(4-chloro-2-(pyrrolidin-1-yl)benzyl)-1,8-diazaspiro[4.5]decane-8-carboxylate]
3 | ### (### is ≥75%) | # (# is <25%) | < 25% | > 1000 nM | # (# is <25%) | < 25% | > 1000 nM | > 75% | < 100 nM | O=C(OC(C(F)(F)F)C(F)(F)F)N1CCC2(CCCN2Cc2ccc(Cl)cc2N2CCOCC2)CC1 [Example 77, 1,1,1,3,3,3-Hexafluoropropan-2-yl 1-(4-chloro-2-morpholinobenzyl)-1,8-diazaspiro[4.5]decane-8-carboxylate]
4 | ### (### is ≥75%) | # (# is <25%) | < 25% | > 1000 nM | # (# is <25%) | < 25% | > 1000 nM | > 75% | < 100 nM | O=C(OC(C(F)(F)F)C(F)(F)F)N1CCC2(CCCN2Cc2cccc(N3CCOCC3)c2Cl)CC1 [Example 79, 1,1,1,3,3,3-Hexafluoropropan-2-yl 1-(2-chloro-3-morpholinobenzyl)-1,8-diazaspiro[4.5]decane-8-carboxylate]
5 | ### (### is ≥75%) | # (# is <25%) | < 25% | > 1000 nM | # (# is <25%) | < 25% | > 1000 nM | > 75% | < 100 nM | O=C(OC(C(F)(F)F)C(F)(F)F)N1CCC2(CCCN2Cc2cccc(N3CCCC3)c2Cl)CC1 [Example 81, 1,1,1,3,3,3-Hexafluoropropan-2-yl 1-(2-chloro-3-(pyrrolidin-1-yl)benzyl)-1,8-diazaspiro[4.5]decane-8-carboxylate]
6 | ### (### is ≥75%) | # (# is <25%) | < 25% | > 1000 nM | # (# is <25%) | < 25% | > 1000 nM | > 75% | < 100 nM | O=C(OC(C(F)(F)F)C(F)(F)F)N1CCC2(CCCN2Cc2cccc(N3CC4CCC(C3)O4)c2Cl)CC1 [Example 82, 1,1,1,3,3,3-Hexafluoropropan-2-yl 1-(3-(8-oxa-3-azabicyclo[3.2.1]octan-3-yl)-2-chlorobenzyl)-1,8-diazaspiro[4.5]decane-8-carboxylate]
7 | ### (### is ≥75%) | # (# is <25%) | < 25% | > 1000 nM | # (# is <25%) | < 25% | > 1000 nM | > 75% | 100 to 1000 nM | Cc1c(CN2CCCC23CCN(C(=O)OC(C(F)(F)F)C(F)(F)F)CC3)cccc1N1CCCCC1 [Example 84, 1,1,1,3,3,3-Hexafluoropropan-2-yl 1-(2-methyl-3-(piperidin-1-yl)benzyl)-1,8-diazaspiro[4.5]decane-8-carboxylate]
8 | ### (### is ≥75%) | # (# is <25%) | < 25% | > 1000 nM | # (# is <25%) | < 25% | > 1000 nM | > 75% | < 100 nM | Cc1c(CN2CCCC23CCN(C(=O)OC(C(F)(F)F)C(F)(F)F)CC3)cccc1N1CCCC1 [Example 85, 1,1,1,3,3,3-Hexafluoropropan-2-yl 1-(2-methyl-3-(pyrrolidin-1-yl)benzyl)-1,8-diazaspiro[4.5]decane-8-carboxylate]
9 | ### (### is ≥75%) | # (# is <25%) | < 25% | > 1000 nM | # (# is <25%) | < 25% | > 1000 nM | > 75% | < 100 nM | Cc1c(CN2CCCC23CCN(C(=O)OC(C(F)(F)F)C(F)(F)F)CC3)cccc1N1CC2CCC(C1)O2 [Example 86, 1,1,1,3,3,3-Hexafluoropropan-2-yl 1-(3-(8-oxa-3-azabicyclo[3.2.1]octan-3-yl)-2-methylbenzyl)-1,8-diazaspiro[4.5]decane-8-carboxylate]

Row | SMILES | MAGL % Inh 5 mg/kg (mouse) (MAGL [1]) | ABHD6 % Inh 5 mg/kg (mouse) (ABHD6 [2]) | inhibition at 1 µM (ABHD6 [3]) | IC50 (ABHD6 [3]) | FAAH % Inh 5 mg/kg (mouse) (FAAH [4]) | inhibition at 1 µM (FAAH [5]) | IC50 (FAAH [5]) | inhibition at 1 µM (MAGL [6]) | IC50 (MAGL [6])
10 | O=C(OC(C(F)(F)F)C(F)(F)F)N1CCC2(CCCN2Cc2ccc(Cl)cc2N2CCCCC2)CC1 [Example 74, 1,1,1,3,3,3-Hexafluoropropan-2-yl 1-(4-chloro-2-(piperidin-1-yl)benzyl)-1,8-diazaspiro[4.5]decane-8-carboxylate] | ## (## is equal to or greater than 25% but less than 75%) | # (# is <25%) | 25 to 75% | > 1000 nM | # (# is <25%) | < 25% | > 1000 nM | > 75% | < 100 nM
11 | O=C(OC(C(F)(F)F)C(F)(F)F)N1CCC2(CCCN2Cc2ccc(C(F)(F)F)cc2N2CCCCC2)CC1 [Example 78, 1,1,1,3,3,3-Hexafluoropropan-2-yl 1-(2-(piperidin-1-yl)-4-(trifluoromethyl)benzyl)-1,8-diazaspiro[4.5]decane-8-carboxylate] | ## (## is equal to or greater than 25% but less than 75%) | # (# is <25%) | < 25% | > 1000 nM | # (# is <25%) | < 25% | > 1000 nM | > 75% | < 100 nM
12 | O=C(OC(C(F)(F)F)C(F)(F)F)N1CCC2(CCCN2Cc2cccc(N3CCCCC3)c2Cl)CC1 [Example 80, 1,1,1,3,3,3-Hexafluoropropan-2-yl 1-(2-chloro-3-(piperidin-1-yl)benzyl)-1,8-diazaspiro[4.5]decane-8-carboxylate] | ### (### is ≥75%) | ## (## is equal to or greater than 25% but less than 75%) | < 25% | > 1000 nM | ## (## is equal to or greater than 25% but less than 75%) | < 25% | > 1000 nM | > 75% | < 100 nM
13 | CCN1CCN(c2cc(C(F)(F)F)ccc2CN2CCCC23CCN(C(=O)OC(C(F)(F)F)C(F)(F)F)CC3)CC1 [Example 87, 1,1,1,3,3,3-Hexafluoropropan-2-yl 1-(2-(4-ethylpiperazin-1-yl)-4-(trifluoromethyl)benzyl)-1,8-diazaspiro[4.5]decane-8-carboxylate] | ## (## is equal to or greater than 25% but less than 75%) | # (# is <25%) | < 25% | > 1000 nM | # (# is <25%) | < 25% | > 1000 nM | > 75% | < 100 nM
14 | CC(=O)N1CCN(c2cc(C(F)(F)F)ccc2CN2CCCC23CCN(C(=O)OC(C(F)(F)F)C(F)(F)F)CC3)CC1 [Example 88, 1,1,1,3,3,3-Hexafluoropropan-2-yl 1-(2-(4-acetylpiperazin-1-yl)-4-(trifluoromethyl)benzyl)-1,8-diazaspiro[4.5]decane-8-carboxylate] | ## (## is equal to or greater than 25% but less than 75%) | # (# is <25%) | < 25% | > 1000 nM | # (# is <25%) | < 25% | > 1000 nM | > 75% | < 100 nM
